Earlier results as cited in US6967217B1, “Process and composition for enhancing the action of vitamin a on the cellular activity of an individual, and use of vitamin c” (Natura Cosmetico S.A., priority 1998, dated 2005).

System: wrinkles
Conditions: Retinol 0.034%; men and women with age between 22 and 34 years

In the case of CC1=C(/C=C/C(C)=C/C=C/C(C)=C/CO)C(C)(C)CCC1 [Retinol], the effect on wrinkles is listed as “reduce the amount and the deepness of wrinkles”.
